Among the data in patent US12122763B2, “Substituted piperidines for androgen receptor degradation” (UBIX THERAPEUTICS, INC., priority 2020, dated 2024) are inhibition values, retold here.

Structures are written as SMILES.

For this assay, the target named is T1, Androgen Receptor (AR) protein (Homo sapiens, UniProt P10275, T878A).
T1 construct: endogenous in cells; host or cells: LNCaP
The experiment in a line: Androgen Receptor (AR) protein degradation assay in LNCaP cells, western blotting. To be noted: 20 h; for inhibition at 0.01 µM: 0.01 μM compound; for inhibition at 0.1 µM: 0.1 μM compound; for inhibition at 1 µM: 1 μM compound. It counts as cell-based. The method in brief:
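LNCaP prostate cancer cells were cultured 3 days, then treated with compound for 20 h. Lysates in 1% SDS buffer were normalised by BCA, and 8 μg protein was run on 4–12% Bis-Tris gels. AR was immunoblotted with chemiluminescence, using GAPDH/β-actin as loading controls.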
Background: Immunoblotting shows a protein as a band on a membrane.

T1 sequence (P10275 whole entry T878A): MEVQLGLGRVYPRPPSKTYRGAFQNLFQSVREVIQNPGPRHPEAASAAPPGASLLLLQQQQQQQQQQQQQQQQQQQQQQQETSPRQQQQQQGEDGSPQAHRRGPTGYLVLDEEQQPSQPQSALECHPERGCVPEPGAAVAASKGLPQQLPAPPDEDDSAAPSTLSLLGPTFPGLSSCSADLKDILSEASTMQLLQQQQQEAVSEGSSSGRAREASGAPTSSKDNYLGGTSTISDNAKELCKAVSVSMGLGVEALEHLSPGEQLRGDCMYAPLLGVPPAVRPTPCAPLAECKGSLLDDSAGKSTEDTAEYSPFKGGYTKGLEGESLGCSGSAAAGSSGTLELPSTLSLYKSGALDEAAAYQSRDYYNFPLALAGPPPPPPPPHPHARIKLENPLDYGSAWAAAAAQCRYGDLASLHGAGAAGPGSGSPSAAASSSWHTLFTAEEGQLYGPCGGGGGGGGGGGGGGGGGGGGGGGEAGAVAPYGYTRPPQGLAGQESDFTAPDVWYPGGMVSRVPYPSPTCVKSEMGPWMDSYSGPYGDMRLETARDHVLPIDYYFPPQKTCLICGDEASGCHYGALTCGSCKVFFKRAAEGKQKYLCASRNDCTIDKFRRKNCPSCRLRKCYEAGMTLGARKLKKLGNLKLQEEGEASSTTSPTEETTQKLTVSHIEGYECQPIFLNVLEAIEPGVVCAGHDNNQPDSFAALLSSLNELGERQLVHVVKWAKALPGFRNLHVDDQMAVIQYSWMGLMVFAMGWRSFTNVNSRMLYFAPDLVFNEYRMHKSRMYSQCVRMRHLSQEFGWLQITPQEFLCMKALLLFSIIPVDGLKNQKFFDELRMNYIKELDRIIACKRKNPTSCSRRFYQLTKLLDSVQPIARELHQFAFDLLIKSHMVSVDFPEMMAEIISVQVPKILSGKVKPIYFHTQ
T1 sequence (Q96SW2 whole entry partner): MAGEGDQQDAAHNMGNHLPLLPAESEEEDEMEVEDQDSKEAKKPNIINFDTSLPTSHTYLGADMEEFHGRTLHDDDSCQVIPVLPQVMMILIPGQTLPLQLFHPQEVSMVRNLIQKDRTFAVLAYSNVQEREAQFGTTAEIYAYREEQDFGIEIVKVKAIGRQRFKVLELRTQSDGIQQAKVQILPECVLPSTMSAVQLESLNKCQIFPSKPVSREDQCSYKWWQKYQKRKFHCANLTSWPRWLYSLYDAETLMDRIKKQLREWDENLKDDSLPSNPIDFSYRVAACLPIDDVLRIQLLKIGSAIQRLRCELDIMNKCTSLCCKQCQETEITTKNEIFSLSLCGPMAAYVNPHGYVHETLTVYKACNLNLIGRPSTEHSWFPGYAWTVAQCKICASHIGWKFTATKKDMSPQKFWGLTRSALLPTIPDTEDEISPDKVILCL

As for `N#Cc1ccc(N2CCC(C(=O)Nc3ccc(N4CCC(CN5CC(CN6CCN(c7ccc8c(n7)CN(C7CCC(=O)NC7=O)C8=O)CC6)C5)CC4)cn3)CC2)cc1C(F)(F)F` (stereo not drawn) [Example 80, 1-(4-cyano-3-(trifluoromethyl)phenyl)-N-(5-(4-((3-((4-(6-(2,6-dioxopiperidin-3-yl)-5-oxo-6,7-dihydro-5H-pyrrolo[3,4-b]pyridin-2-yl)piperazin-1-yl)methyl)azetidin-1-yl)methyl)piperidin-1-yl)pyridin-2-yl)piperidine-4-carboxamide], the inhibition at 0.01 µM amounted to 34%, the inhibition at 0.1 µM stood at 90% and the inhibition at 1 µM stood at 57%.
Turning to `N#Cc1ccc(N2CCC(C(=O)Nc3ccc(N4CCC(CN5CCC(CN6CCN(c7ccc8c(c7)C(=O)N(C7CCC(=O)NC7=O)C8=O)CC6)CC5)CC4)cn3)CC2)cc1C(F)(F)F` (stereo not drawn) [Example 81, 1-(4-cyano-3-(trifluoromethyl)phenyl)-N-(5-(4-((4-((4-(2-(2,6-dioxopiperidin-3-yl)-1,3-dioxoisoindolin-5-yl)piperazin-1-yl)methyl)piperidin-1-yl)methyl)piperidin-1-yl)pyridin-2-yl)piperidine-4-carboxamide], the inhibition at 0.01 µM is 44%, the inhibition at 0.1 µM is 87% and the inhibition at 1 µM amounted to 96%.
As for `N#Cc1ccc(N2CCC(C(=O)Nc3ccc(N4CCC(CN5CC[C@H](CN6CCN(c7ccc8c(c7)C(=O)N(C7CCC(=O)NC7=O)C8=O)CC6)C5)CC4)cn3)CC2)cc1C(F)(F)F` (stereo partly drawn) [Example 82, 1-(4-cyano-3-(trifluoromethyl)phenyl)-N-(5-(4-(((3S)-3-((4-(2-(2,6-dioxopiperidin-3-yl)-1,3-dioxoisoindolin-5-yl)piperazin-1-yl)methyl)pyrrolidin-1-yl)methyl)piperidin-1-yl)pyridin-2-yl)piperidine-4-carboxamide], the inhibition at 0.01 µM turned out to be 33%, the inhibition at 0.1 µM is 87% and the inhibition at 1 µM was found to be 95%.
On to `N#Cc1ccc(N2CCC(C(=O)Nc3ccc(N4CCC(CN5CC[C@@H](CN6CCN(c7ccc8c(c7)C(=O)N(C7CCC(=O)NC7=O)C8=O)CC6)C5)CC4)cn3)CC2)cc1C(F)(F)F` (stereo partly drawn) [Example 83, 1-(4-cyano-3-(trifluoromethyl)phenyl)-N-(5-(4-(((3R)-3-((4-(2-(2,6-dioxopiperidin-3-yl)-1,3-dioxoisoindolin-5-yl)piperazin-1-yl)methyl)pyrrolidin-1-yl)methyl)piperidin-1-yl)pyridin-2-yl)piperidine-4-carboxamide], for which the inhibition at 0.01 µM is 25%, the inhibition at 0.1 µM stood at 87% and the inhibition at 1 µM came to 96%.
The like results for `CN(CC1CCN(c2ccc(NC(=O)C3CCN(c4ccc(C#N)c(C(F)(F)F)c4)CC3)nc2)CC1)CC1CCN(c2ccc3c(c2)C(=O)N(C2CCC(=O)NC2=O)C3=O)CC1` (stereo not drawn) [Example 84, 1-(4-cyano-3-(trifluoromethyl)phenyl)-N-(5-(4-((((1-(2-(2,6-dioxopiperidin-3-yl)-1,3-dioxoisoindolin-5-yl)piperidin-4-yl)methyl)(methyl)amino)methyl)piperidin-1-yl)pyridin-2-yl)piperidine-4-carboxamide] were, in that order, 59%, 89% and 88%.
In the case of `N#Cc1ccc(N2CCC(C(=O)Nc3ccc(N4CCC(CN5CC6CN(c7ccc8c(c7)C(=O)N(C7CCC(=O)NC7=O)C8=O)CC6C5)CC4)cn3)CC2)cc1C(F)(F)F` (stereo not drawn) [Example 85, 1-(4-cyano-3-(trifluoromethyl)phenyl)-N-(5-(4-((5-(2-(2,6-dioxopiperidin-3-yl)-1,3-dioxoisoindolin-5-yl)hexahydropyrrolo[3,4-c]pyrrol-2(1H)-yl)methyl)piperidin-1-yl)pyridin-2-yl)piperidine-4-carboxamide], the inhibition at 0.01 µM was found to be 24%, the inhibition at 0.1 µM is 89% and the inhibition at 1 µM was 92%.
Take `N#Cc1ccc(N2CCC(C(=O)Nc3ccc(N4CCC(CCN5CCN(c6ccc7c(c6)C(=O)N(C6CCC(=O)NC6=O)C7=O)CC5)CC4)cn3)CC2)cc1C(F)(F)F` (stereo not drawn) [Example 86, 1-(4-cyano-3-(trifluoromethyl)phenyl)-N-(5-(4-(2-(4-(2-(2,6-dioxopiperidin-3-yl)-1,3-dioxoisoindolin-5-yl)piperazin-1-yl)ethyl)piperidin-1-yl)pyridin-2-yl)piperidine-4-carboxamide]: the inhibition at 0.01 µM worked out at 65%, the inhibition at 0.1 µM turned out to be 94% and the inhibition at 1 µM stood at 96%.
For the compound `N#Cc1ccc(N2CCC(C(=O)Nc3ccc(N4CCC(CCN5CCN(c6ccc7c(c6)C(=O)N(C6CCC(=O)NC6=O)C7=O)CC5)CC4)cn3)CC2)cc1Cl` (stereo not drawn) [Example 87, 1-(3-chloro-4-cyanophenyl)-N-(5-(4-(2-(4-(2-(2,6-dioxopiperidin-3-yl)-1,3-dioxoisoindolin-5-yl)piperazin-1-yl)ethyl)piperidin-1-yl)pyridin-2-yl)piperidine-4-carboxamide], the inhibition at 0.01 µM was determined as 30%, the inhibition at 0.1 µM stood at 88% and the inhibition at 1 µM came to 90%.
For `N#Cc1ccc(N2CCC(F)(C(=O)Nc3ccc(N4CCC(CCN5CCN(c6ccc7c(c6)C(=O)N(C6CCC(=O)NC6=O)C7=O)CC5)CC4)cn3)CC2)cc1C(F)(F)F` (stereo not drawn) [Example 88, 1-(4-cyano-3-(trifluoromethyl)phenyl)-N-(5-(4-(2-(4-(2-(2,6-dioxopiperidin-3-yl)-1,3-dioxoisoindolin-5-yl)piperazin-1-yl)ethyl)piperidin-1-yl)pyridin-2-yl)-4-fluoropiperidine-4-carboxamide], the inhibition at 0.01 µM was 35%, the inhibition at 0.1 µM worked out at 87% and the inhibition at 1 µM worked out at 96%.
The matching figures for `N#Cc1ncc(N2CCC(C(=O)Nc3ccc(N4CCC(CCN5CCN(c6ccc7c(c6)C(=O)N(C6CCC(=O)NC6=O)C7=O)CC5)CC4)cn3)CC2)cc1C(F)(F)F` (stereo not drawn) [Example 89, 1-(6-cyano-5-(trifluoromethyl)pyridin-3-yl)-N-(5-(4-(2-(4-(2-(2,6-dioxopiperidin-3-yl)-1,3-dioxoisoindolin-5-yl)piperazin-1-yl)ethyl)piperidin-1-yl)pyridin-2-yl)piperidine-4-carboxamide]: 35%, 73% and 91%.
The like results for `N#Cc1ncc(N2CCC(F)(C(=O)Nc3ccc(N4CCC(CCN5CCN(c6ccc7c(c6)C(=O)N(C6CCC(=O)NC6=O)C7=O)CC5)CC4)cn3)CC2)cc1C(F)(F)F` (stereo not drawn) [Example 90, 1-(6-cyano-5-(trifluoromethyl)pyridin-3-yl)-N-(5-(4-(2-(4-(2-(2,6-dioxopiperidin-3-yl)-1,3-dioxoisoindolin-5-yl)piperazin-1-yl)ethyl)piperidin-1-yl)pyridin-2-yl)-4-fluoropiperidine-4-carboxamide] were, in that order, 23%, 57% and 82%.
The like results for `N#Cc1ccc(N2CCC(C(=O)Nc3ccc(N4CCC(CCN5CCN(C6CCN(c7ccc8c(c7)C(=O)N(C7CCC(=O)NC7=O)C8=O)CC6)CC5)CC4)cn3)CC2)cc1C(F)(F)F` (stereo not drawn) [Example 91, 1-(4-cyano-3-(trifluoromethyl)phenyl)-N-(5-(4-(2-(4-(1-(2-(2,6-dioxopiperidin-3-yl)-1,3-dioxoisoindolin-5-yl)piperidin-4-yl)piperazin-1-yl)ethyl)piperidin-1-yl)pyridin-2-yl)piperidine-4-carboxamide] were, in that order, 48%, 96% and 98%.
As to `N#Cc1ccc(N2CCC(C(=O)Nc3ccc(N4CCC(CCN5CCN(c6ccc7c(n6)CN(C6CCC(=O)NC6=O)C7=O)CC5)CC4)cn3)CC2)cc1C(F)(F)F` (stereo not drawn) [Example 92, 1-(4-cyano-3-(trifluoromethyl)phenyl)-N-(5-(4-(2-(4-(6-(2,6-dioxopiperidin-3-yl)-5-oxo-6,7-dihydro-5H-pyrrolo[3,4-b]pyridin-2-yl)piperazin-1-yl)ethyl)piperidin-1-yl)pyridin-2-yl)piperidine-4-carboxamide], the inhibition at 0.01 µM amounted to 53%, the inhibition at 0.1 µM worked out at 67% and the inhibition at 1 µM worked out at 96%.
As to `N#Cc1ccc(N2CCC(C(=O)Nc3ccc(N4CCC(CCN5CCN(c6cccc7c6C(=O)N(C6CCC(=O)NC6=O)C7=O)CC5)CC4)cn3)CC2)cc1C(F)(F)F` (stereo not drawn) [Example 93, 1-(4-cyano-3-(trifluoromethyl)phenyl)-N-(5-(4-(2-(4-(2-(2,6-dioxopiperidin-3-yl)-1,3-dioxoisoindolin-4-yl)piperazin-1-yl)ethyl)piperidin-1-yl)pyridin-2-yl)piperidine-4-carboxamide], the inhibition at 0.01 µM was -11%, the inhibition at 0.1 µM came to 55% and the inhibition at 1 µM came to 68%.
For the compound `N#Cc1ccc(N2CCC(C(=O)Nc3ccc(N4CCC(CCN5CC6(CCN(c7ccc8c(c7)C(=O)N(C7CCC(=O)NC7=O)C8=O)CC6)C5)CC4)cn3)CC2)cc1C(F)(F)F` (stereo not drawn) [Example 94, 1-(4-cyano-3-(trifluoromethyl)phenyl)-N-(5-(4-(2-(7-(2-(2,6-dioxopiperidin-3-yl)-1,3-dioxoisoindolin-5-yl)-2,7-diazaspiro[3.5]nonan-2-yl)ethyl)piperidin-1-yl)pyridin-2-yl)piperidine-4-carboxamide], the inhibition at 0.01 µM was found to be 75%, the inhibition at 0.1 µM is 98% and the inhibition at 1 µM was found to be 98%.
`N#Cc1ccc(N2CCC(C(=O)Nc3ccc(N4CCC(CCN5CCC6(CC5)CN(c5ccc7c(c5)C(=O)N(C5CCC(=O)NC5=O)C7=O)C6)CC4)cn3)CC2)cc1C(F)(F)F` (stereo not drawn) [Example 95, 1-(4-cyano-3-(trifluoromethyl)phenyl)-N-(5-(4-(2-(2-(2-(2,6-dioxopiperidin-3-yl)-1,3-dioxoisoindolin-5-yl)-2,7-diazaspiro[3.5]nonan-7-yl)ethyl)piperidin-1-yl)pyridin-2-yl)piperidine-4-carboxamide]: the inhibition at 0.01 µM came to 62%, the inhibition at 0.1 µM worked out at 96% and the inhibition at 1 µM turned out to be 97%.

Broadly, the inhibition is the change of the read-out against control, counted positive when it falls.
